Tests used:
Colo205 = assay: [14C]-thymidine incorporation cell proliferation inhibition assay; type: cell-based; settings: Homo sapiens, COLO 205, 72 hour incubation
Experimental: The cell proliferation inhibition potency of the cell cycle inhibitors was determined by using a [^14C]-thymidine incorporation assay. Exponentially growing cells (Colo205) were seeded in a 96-well Cytostar T plate (GE Healthcare Biosciences) at a density of 5×10^3 cells/well and incubated overnight. Serially diluted compounds and 0.1 μCi of [^14C]-thymidine (GE Healthcare Biosciences) were added to each well on the following day. After 72 hour incubation, isotope incorporation was determined with a β plate counter (Wallac). IC50 values of the compounds in the above assays were determined by non-linear regression analysis using Prism (GraphPad Software).

[1] = system: transfected CHO cells expressing recombinant human monoclonal antibody (cell line 1); assay: 24-deep well culture, cell line 1: VCD, viability, titer, qP; type: cell-based, Chinese hamster; settings: for Titer / VCD / Viability / qP: Cell Line 1; for effect on viability / growth arrest: summary of Table 2
Experimental: Transfected CHO cells expressing a recombinant human monoclonal antibody (mAb) are cultured in 24-deep well plates with seeding density at 1×10^7/mL for five days. At certain time periods, samples of the cultures are taken and evaluated for viable cell density (VCD; expressed in 10^6 cells/mL); percent viability (as determined by trypan blue exclusion); titer of recombinant protein (expressed in grams of protein per liter of culture, or g/L, as determined by Protein A affinity HPLC); qP, or specific productivity (expressed in picograms of recombinant protein per cell per day, or pg/c/d), the presence or absence of high molecular weight substances (usually an indicator of protein aggregation; expressed as % of the total protein); and the relative percentage of Mannose 5, a major intermediate glyco-form that attaches to N297 of the mAb. N-linked glycosylation has an impact on the tertiary structure of the antibody and may affect Fc mediated antibody effector functions. The majority of the human Fc glycans are complex biantennary structures with galactose as the prevalent terminal sugar. Immature glyco-forms, such as high-mannose glycol-forms (Man5-9), are of concern due to potential higher plasma clearance rate (as compared to the clearance rate of complex glycan linked mAbs).
Compounds are further evaluated essentially as described in Example 2 herein. Briefly, transfected CHO cells expressing recombinant human monoclonal antibody (mAb; two different cell lines expressing two different mAb, referred to as cell line 1 and cell line 2) are cultured in 24-deep well plates in the presence or absence of the compounds. At specified time points, samples of the cultures are taken and evaluated for viable cell density (VCD; expressed in 10^6 cells/mL); percent viability (as determined by any method known in the art); titer of recombinant protein (expressed in grams of protein per liter of culture, or g/L, as determined by Protein A affinity HPLC); qP, or specific productivity (expressed in picograms of recombinant protein per cell per day, or pg/c/d). Additional parameters measure include the presence or absence of high molecular weight substances (usually an indicator of protein aggregation; expressed as % of the total protein); and the relative percentage of Mannose 5. For comparison purposes, Compounds A and B, which had been previously tested, were tested again.

CDK4/Cyclin D1 = target: T1, CDK4/Cyclin D1 (Homo sapiens, UniProt P11802); assay: CDK4 filtration kinase assay; type: biochemical; settings: CDK4/Cyclin D1, Rb fragment substrate, [33P]-ATP
T1 construct: purchased Cell Signaling Technology
Experimental: The CDK4 inhibitory activity of the cell cycle inhibitors was determined with a filtration kinase assay. The compounds, kinase and substrate diluted in the kinase buffer (20 mM Tris, pH7.4, 50 mM NaCl, 1 mM DTT, 0.1% BSA) were sequentially added to a 96-well Multiscreen HTS filtration plate (Millipore). The final 100 μL reaction mixture in each well contained 0.3 μg of CDK4/Cyclin D1 (Cell Signaling Technology), 1 μg of Rb fragment (aa773-928, Millipore) for the CDK4 assay and 1 μCi of [^33P]-ATP. The mixture was incubated at room temperature for 1 hour. The proteins in the reaction were then precipitated and washed with cold TCA solution using an aspiration/filtration vacuum system. The plates were dried at room temperature, and the retained radioactivity was measured by scintillation counting. IC50 values of the compounds in the above assays were determined by non-linear regression analysis using Prism (GraphPad Software).

T1 sequence (P11802 whole entry, species assumed, the tested form may be a part): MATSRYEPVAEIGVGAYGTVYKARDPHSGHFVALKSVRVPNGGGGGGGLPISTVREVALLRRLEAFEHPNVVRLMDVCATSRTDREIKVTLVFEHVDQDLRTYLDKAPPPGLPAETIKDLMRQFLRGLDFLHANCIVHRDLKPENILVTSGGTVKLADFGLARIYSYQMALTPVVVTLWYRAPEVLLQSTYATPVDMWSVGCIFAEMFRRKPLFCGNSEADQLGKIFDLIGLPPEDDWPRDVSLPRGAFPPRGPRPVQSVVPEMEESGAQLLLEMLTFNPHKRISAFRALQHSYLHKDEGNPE
T1 sequence (P24385 whole entry partner, species assumed, the tested form may be a part): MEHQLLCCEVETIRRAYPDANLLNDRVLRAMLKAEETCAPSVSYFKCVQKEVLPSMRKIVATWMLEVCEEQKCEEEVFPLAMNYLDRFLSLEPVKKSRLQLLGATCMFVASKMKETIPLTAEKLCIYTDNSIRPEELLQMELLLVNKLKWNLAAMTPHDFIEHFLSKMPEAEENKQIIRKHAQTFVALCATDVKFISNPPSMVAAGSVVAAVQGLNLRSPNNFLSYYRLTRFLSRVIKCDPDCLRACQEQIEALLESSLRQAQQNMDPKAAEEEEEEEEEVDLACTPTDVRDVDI

For `CN(C)C1CCN(c2ccc(Nc3ncc4c5ccncc5n(C5CCCC5)c4n3)nn2)CC1` [Compound C, 9-cyclopentyl-N-(6-(4-(dimethylamino)piperidin-1-yl)pyridazin-3-yl)-9H-pyrido[4′,3′:4,5]pyrrolo[2,3-d]pyrimidin-2-amine], the IC50 (Colo205) was 17.1 nM, the Titer ([1]; 10 microM, D 1) was 0.48 g/L and the VCD ([1]; 10 microM, D 1) was 10.72 e6/mL. It also gave a Viability ([1]; 10 microM, D 1) of 94.37%, a qP ([1]; 10 microM, D 1) of 44.45 pg/c/d and a Titer ([1]; 10 microM, D 2) of 0.70 g/L. The VCD ([1]; 10 microM, D 2) was 8.77 e6/mL, the Viability ([1]; 10 microM, D 2) was 82.97% and the qP ([1]; 10 microM, D 2) was 79.79 pg/c/d. The Titer ([1]; 10 microM, D 3) was 0.94 g/L, the VCD ([1]; 10 microM, D 3) was 10.83 e6/mL and the Viability ([1]; 10 microM, D 3) was 84.46%. For the same compound, the qP ([1]; 10 microM, D 3) was 86.83 pg/c/d, the Titer ([1]; 10 microM, D 4) was 1.21 g/L and the VCD ([1]; 10 microM, D 4) was 12.18 e6/mL. The Viability ([1]; 10 microM, D 4) was 78.70%, the qP ([1]; 10 microM, D 4) was 99.64 pg/c/d and the Titer ([1]; 20 microM, D 1) was 0.48 g/L. The VCD ([1]; 20 microM, D 1) was 11.00 e6/mL, the Viability ([1]; 20 microM, D 1) was 94.55% and the qP ([1]; 20 microM, D 1) was 43.31 pg/c/d. The Titer ([1]; 20 microM, D 2) was 0.67 g/L, the VCD ([1]; 20 microM, D 2) was 8.28 e6/mL and the Viability ([1]; 20 microM, D 2) was 80.00%. For the same compound, the qP ([1]; 20 microM, D 2) was 80.51 pg/c/d, the Titer ([1]; 20 microM, D 3) was 0.85 g/L and the VCD ([1]; 20 microM, D 3) was 9.22 e6/mL. It also gave a Viability ([1]; 20 microM, D 3) of 78.87%, a qP ([1]; 20 microM, D 3) of 91.80 pg/c/d and a Titer ([1]; 20 microM, D 4) of 1.10 g/L. The VCD ([1]; 20 microM, D 4) was 10.18 e6/mL, the Viability ([1]; 20 microM, D 4) was 74.13% and the qP ([1]; 20 microM, D 4) was 108.01 pg/c/d. The effect on viability [1] was “greater (but still modest) decreases in viability”, the growth arrest [1] was “more sustained growth arrest” and the IC50 (CDK4/Cyclin D1) was 3.17 nM.
`CN(C)C1CCN(c2ccc(Nc3ncc4c(n3)C3(C=CC(C)(C)CC3)c3cnccc3-4)cn2)CC1` (centres unmarked) [Compound F, N-(6-(4-(dimethylamino)piperidin-1-yl)pyridin-3-yl)-4,4-dimethylspiro[cyclohex[2]ene-1,9′-pyrido[4′,3′:3,4]cyclopenta[1,2-d]pyrimidin]-2′-amine] was tested, and the IC50 (Colo205) was 34.7 nM, the Titer ([1]; 1.2 microM, D 1) was 0.49 g/L and the VCD ([1]; 1.2 microM, D 1) was 11.56 e6/mL. The Viability ([1]; 1.2 microM, D 1) was 96.84%, the qP ([1]; 1.2 microM, D 1) was 42.39 pg/c/d and the Titer ([1]; 1.2 microM, D 2) was 0.73 g/L. For the same compound, the VCD ([1]; 1.2 microM, D 2) was 10.80 e6/mL, the Viability ([1]; 1.2 microM, D 2) was 90.23% and the qP ([1]; 1.2 microM, D 2) was 67.31 pg/c/d. For the same compound, the Titer ([1]; 1.2 microM, D 3) was 0.96 g/L, the VCD ([1]; 1.2 microM, D 3) was 11.96 e6/mL and the Viability ([1]; 1.2 microM, D 3) was 89.40%. The qP ([1]; 1.2 microM, D 3) was 80.01 pg/c/d, the Titer ([1]; 1.2 microM, D 4) was 1.13 g/L and the VCD ([1]; 1.2 microM, D 4) was 14.70 e6/mL. It also gave a Viability ([1]; 1.2 microM, D 4) of 88.76%, a qP ([1]; 1.2 microM, D 4) of 77.09 pg/c/d and a Titer ([1]; 2.4 microM, D 1) of 0.50 g/L. For the same compound, the VCD ([1]; 2.4 microM, D 1) was 11.16 e6/mL, the Viability ([1]; 2.4 microM, D 1) was 95.96% and the qP ([1]; 2.4 microM, D 1) was 44.50 pg/c/d. For the same compound, the Titer ([1]; 2.4 microM, D 2) was 0.75 g/L, the VCD ([1]; 2.4 microM, D 2) was 10.01 e6/mL and the Viability ([1]; 2.4 microM, D 2) was 89.97%. The qP ([1]; 2.4 microM, D 2) was 75.27 pg/c/d, the Titer ([1]; 2.4 microM, D 3) was 0.97 g/L and the VCD ([1]; 2.4 microM, D 3) was 10.33 e6/mL. It also gave a Viability ([1]; 2.4 microM, D 3) of 88.89%, a qP ([1]; 2.4 microM, D 3) of 93.88 pg/c/d and a Titer ([1]; 2.4 microM, D 4) of 1.18 g/L. The VCD ([1]; 2.4 microM, D 4) was 12.84 e6/mL, the Viability ([1]; 2.4 microM, D 4) was 86.16% and the qP ([1]; 2.4 microM, D 4) was 91.87 pg/c/d. The effect on viability [1] was “minimal effects on viability”, the growth arrest [1] was “reasonably sustained growth arrest” and the IC50 (CDK4/Cyclin D1) was 33.5 nM.
`CC1(C)C=CC2(CC1)c1cnccc1-c1cnc(Nc3ccc(N4CCNCC4)nn3)nc12` (centres unmarked) [Compound K, 4,4-dimethyl-N-(6-(piperazin-1-yl)pyridazin-3-yl)spiro[cyclohex[2]ene-1,9′-pyrido[4′,3′:3,4]cyclopenta[1,2-d]pyrimidin]-2′-amine] was tested, and the Titer ([1]; 1.25 microM, D 1) was 0.48 g/L, the VCD ([1]; 1.25 microM, D 1) was 11.87 e6/mL and the Viability ([1]; 1.25 microM, D 1) was 95.72%. The qP ([1]; 1.25 microM, D 1) was 40.15 pg/c/d, the Titer ([1]; 1.25 microM, D 2) was 0.72 g/L and the VCD ([1]; 1.25 microM, D 2) was 13.04 e6/mL. It also gave a Viability ([1]; 1.25 microM, D 2) of 92.13%, a qP ([1]; 1.25 microM, D 2) of 54.94 pg/c/d and a Titer ([1]; 1.25 microM, D 3) of 1.01 g/L. For the same compound, the VCD ([1]; 1.25 microM, D 3) was 16.39 e6/mL, the Viability ([1]; 1.25 microM, D 3) was 90.36% and the qP ([1]; 1.25 microM, D 3) was 61.61 pg/c/d. The Titer ([1]; 1.25 microM, D 4) was 1.07 g/L, the VCD ([1]; 1.25 microM, D 4) was 22.55 e6/mL and the Viability ([1]; 1.25 microM, D 4) was 91.21%. For the same compound, the qP ([1]; 1.25 microM, D 4) was 47.60 pg/c/d, the Titer ([1]; 2.5 microM, D 1) was 0.48 g/L and the VCD ([1]; 2.5 microM, D 1) was 11.77 e6/mL. It also gave a Viability ([1]; 2.5 microM, D 1) of 96.38%, a qP ([1]; 2.5 microM, D 1) of 40.78 pg/c/d and a Titer ([1]; 2.5 microM, D 2) of 0.72 g/L. For the same compound, the VCD ([1]; 2.5 microM, D 2) was 12.07 e6/mL, the Viability ([1]; 2.5 microM, D 2) was 90.97% and the qP ([1]; 2.5 microM, D 2) was 59.38 pg/c/d. The Titer ([1]; 2.5 microM, D 3) was 1.05 g/L, the VCD ([1]; 2.5 microM, D 3) was 15.31 e6/mL and the Viability ([1]; 2.5 microM, D 3) was 89.25%. The qP ([1]; 2.5 microM, D 3) was 68.37 pg/c/d, the Titer ([1]; 2.5 microM, D 4) was 1.22 g/L and the VCD ([1]; 2.5 microM, D 4) was 21.06 e6/mL. The Viability ([1]; 2.5 microM, D 4) was 89.80% and the qP ([1]; 2.5 microM, D 4) was 58.10 pg/c/d.

Reference: US20180087079A1, “METHODS OF USING CELL-CYCLE INHIBITORS TO MODULATE ONE OR MORE PROPERTIES OF A CELL CULTURE” (AMGEN INC., priority 2013, published 2018)
